Assay results as given in patent US20240417428A1, “POLYPEPTIDE FOR INHIBITING TRPM8 AND USE THEREOF” (ZHEJIANG UNIVERSITY, priority 2021, published 2024).

Legend:
TRPM8 [1] = biological target: T1, TRPM8 (Mus musculus, UniProt Q8R4D5); assay: Inside-out single-channel recording of menthol-activated TRPM8 at +80 mV; assay type: cell-based; design: expressed in transfected cells; host or cells: HEK293T; settings: saturating menthol (1 mM) alone
Experimental: (§1) HEK293T cells were cultured in Dulbecco's modified Eagle culture medium under a 37° C., 5% CO2 environment, 10% fetal bovine serum, penicillin (100 U/mL), and streptomycin ([…]) was needed to add into the culture medium. Transient transfection was conducted by using Lipo 2000 (Invitrogen) transfection kit and following the instruction manual.
(§2) Electrophysiological experiment recordings were performed on the cells within 24˜48 h of transient transfections. Specifically, single channel electrophysiological recordings were performed within 8 h after transfection.
(§3) Measurement of the cell currents was respectively performed in the whole-cell recording mode, inside-out recording mode or outside-out recording mode with a HEKA EPC10 amplifier. In the whole cell electrophysiological recordings, glass microelectrodes made of borosilicate material were fire-polished to a original electrode resistance of about 3-6 MΩ. Serial resistance was compensated by 60%. The whole cell electrophysiological recordings were performed at ±80 mV. For single channel electrophysiological recordings, glass microelectrodes were fire-polished to a higher resistance of 6-8 MΩ2. Current signal was sampled at 10 kHz and filtered at 2.9 kHz. Membrane potential of the cell membrane would be clamped at +80 mV. All electrophysiological recordings were performed at room temperature (22° C.) (the maximum variation is 1° C.).
There were different bath and pipette solutions prepared for different ion channels current measurement. For ion channels such as TRPM8, TRPV1, TRPV2, TRPV3 and TRPA1, the formula of the bath and pipette solutions was: 130 mM NaCl, 0.2 mM EDTA and 3 mM HEPES, pH=7.2. For the current measurement of TRPM4 ion channel, the formula of the bath solution was: 130 mM NaCl and 3 mM HEPES, pH=7.2, and the formula of the pipette solution was: 500 μM CaCl2), 130 mM NaCl and 3 mM HEPES, pH=7.2. For the current measurement of TRPM2 ion channel, the formula of the bath solution was: 147 mM NaCl, 2 mM KCl, 1 mM MgCl2, 10 mM HEPES, 2 mM CaCl2) 13 mM Glucose, pH=7.4, and the formula of the pipette solution was: 147 mM NaCl, 1 mM MgCl2, 10 mM HEPES, pH=7.4. For the current measurement of Nav1.5, Nav1.7 ion channels, the formula of the bath solution was: 140 mM NaCl, 3 mM KCl, 1 mM MgCl2, 1 mM CaCl2), 10 mM HEPES, pH=7.2 and the formula of the pipette solution was: 140 mM CsF, 1 mM EGTA, 10 mM NaCl, 10 mM MgCl2, 3 mM KCl, pH=7.2. To evoke sodium channel current, the membrane potential was increased from −80 mV to +10 mV.
A rapid solution changer with a gravity-driven perfusion system (RSC-200, BioLogic) was used to rapidly perfuse specific solutions into the cells to be tested. Each solution was delivered through a separate tube so that there is no mixing of solutions. The glass microelectrode with a membrane patch was placed directly below the outlet of the perfusion tube during the electrophysiology recordings.

TRPM8 [2] = biological target: T1, TRPM8; assay: Whole-cell electrophysiological recording, menthol-activated TRPM8 in transfected HEK293T cells; assay type: cell-based; design: expressed in transfected cells; host or cells: HEK293T; settings: negative control peptide
Experimental: as §1, §2
as §3, with “C.). […]” for “C.).”

T1 sequence (Q8R4D5 whole entry): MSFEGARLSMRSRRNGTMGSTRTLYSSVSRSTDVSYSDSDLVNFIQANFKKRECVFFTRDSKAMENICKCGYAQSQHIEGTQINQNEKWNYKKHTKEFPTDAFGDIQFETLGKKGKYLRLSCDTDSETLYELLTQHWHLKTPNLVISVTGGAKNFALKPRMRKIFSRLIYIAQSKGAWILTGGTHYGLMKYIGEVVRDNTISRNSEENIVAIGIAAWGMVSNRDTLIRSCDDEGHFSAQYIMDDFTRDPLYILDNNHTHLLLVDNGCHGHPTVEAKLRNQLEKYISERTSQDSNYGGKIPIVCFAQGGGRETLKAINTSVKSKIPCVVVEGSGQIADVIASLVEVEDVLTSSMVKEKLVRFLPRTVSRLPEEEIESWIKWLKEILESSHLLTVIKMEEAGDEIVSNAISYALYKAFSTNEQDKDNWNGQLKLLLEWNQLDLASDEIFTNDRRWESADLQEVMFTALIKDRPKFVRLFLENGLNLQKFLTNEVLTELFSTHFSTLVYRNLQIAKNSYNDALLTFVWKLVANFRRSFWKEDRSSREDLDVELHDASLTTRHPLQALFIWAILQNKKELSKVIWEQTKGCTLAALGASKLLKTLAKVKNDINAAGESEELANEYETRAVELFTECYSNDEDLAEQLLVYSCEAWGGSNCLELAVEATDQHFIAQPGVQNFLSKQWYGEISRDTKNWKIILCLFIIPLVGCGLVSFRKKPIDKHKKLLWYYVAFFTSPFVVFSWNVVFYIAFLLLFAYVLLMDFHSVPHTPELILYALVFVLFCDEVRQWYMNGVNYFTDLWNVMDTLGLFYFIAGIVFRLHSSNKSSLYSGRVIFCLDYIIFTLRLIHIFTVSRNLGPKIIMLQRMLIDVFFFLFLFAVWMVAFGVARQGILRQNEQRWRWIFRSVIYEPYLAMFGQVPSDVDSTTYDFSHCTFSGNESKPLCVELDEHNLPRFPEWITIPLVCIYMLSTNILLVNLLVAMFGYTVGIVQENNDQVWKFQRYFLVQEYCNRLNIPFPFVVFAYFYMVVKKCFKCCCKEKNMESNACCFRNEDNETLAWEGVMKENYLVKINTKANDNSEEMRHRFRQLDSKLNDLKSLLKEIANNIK

For `CC1CCC(C(C)C)C(O)C1` (stereo not drawn) [menthol, reference compound], the “maximum open probability of TRPM8 activation” value (TRPM8 [1]) was ~70% and the “single-channel conductance of TRPM8” value (TRPM8 [1]; n=3) was 58.83±1.85 pS.
With “CDHRRRQARYRRC [S-DeC-1.2, negative control polypeptide, reference compound]” the “inhibition of TRPM8” value (TRPM8 [2]) was “did not inhibit TRPM8”.
